We go through one molecule from paper PMC7915588, “Polyphyllin D Shows Anticancer Effect through a Selective Inhibition of Src Homology Region 2-Containing Protein Tyrosine Phosphatase-2 (SHP2)” (Molecules, 2021).

Holding throughout (experiment): biochemical
What all share (design): Fluorogenic phosphatase assay, DiFMUP hydrolysis by recombinant PTPs, initial velocity, Ex/Em 355/460 nm
Common to all, as to details: read-out: Inhibition by 20 µM polyphyllin D (%)

One experiment deals with T1, PTPN12 (PTP-PEST) (Homo sapiens, UniProt Q05209).
T1 construct: 1-334
T1 sequence (Q05209 1-780): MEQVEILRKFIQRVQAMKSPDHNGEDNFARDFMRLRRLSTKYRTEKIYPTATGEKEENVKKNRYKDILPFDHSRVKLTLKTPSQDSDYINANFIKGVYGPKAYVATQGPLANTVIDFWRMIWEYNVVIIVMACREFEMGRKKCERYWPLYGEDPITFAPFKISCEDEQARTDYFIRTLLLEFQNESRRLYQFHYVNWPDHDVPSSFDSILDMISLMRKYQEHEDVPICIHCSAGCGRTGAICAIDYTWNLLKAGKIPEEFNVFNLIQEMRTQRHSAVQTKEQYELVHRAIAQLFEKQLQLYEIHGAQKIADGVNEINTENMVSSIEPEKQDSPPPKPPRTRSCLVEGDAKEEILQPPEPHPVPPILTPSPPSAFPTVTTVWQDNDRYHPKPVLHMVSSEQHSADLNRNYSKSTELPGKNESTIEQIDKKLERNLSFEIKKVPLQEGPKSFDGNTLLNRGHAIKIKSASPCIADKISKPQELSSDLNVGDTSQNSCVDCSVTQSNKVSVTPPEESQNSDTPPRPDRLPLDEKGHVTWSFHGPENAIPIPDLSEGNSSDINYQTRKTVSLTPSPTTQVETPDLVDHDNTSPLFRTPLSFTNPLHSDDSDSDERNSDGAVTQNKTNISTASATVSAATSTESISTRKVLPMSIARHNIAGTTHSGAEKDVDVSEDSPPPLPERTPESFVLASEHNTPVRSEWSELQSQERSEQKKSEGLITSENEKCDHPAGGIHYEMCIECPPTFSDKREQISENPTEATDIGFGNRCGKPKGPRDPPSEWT
How it is done: (§1) Enzymatic reactions were initiated by the addition of SHP2 (final concentration of 10 nM) to a solution of each of the 658 phytochemical compounds (final concentration of 20 µM) in reaction buffer (20 mM bis-tris pH 6.0, 150 mM NaCl, 2.5 mM dithiothreitol, and 0.01% Triton X-100) containing DiFMUP (final concentration of 140 µM). Changes in the fluorescence intensities were measured continuously for 10 min at Ex/Em = 355/460 nm on a VictorTM X4 multilabel plate reader. Enzyme inhibition was estimated by comparing the reaction velocity in the presence of each compound with that in the absence of any compound. Inhibition of the other PTPs was measured in the same way. Next, we established a screening strategy using a DiFMUP substrate to identify a natural product that inhibits SHP2 activity. Initially, we screened 658 compounds at 20 µM using a 96-well plate system (Figure 2A). […] The selected compounds were tested at 20 µM for SHP2 inhibition, and 14 additional non-receptor-type PTPs (PTP1B, TCPTP, PTPH1, STEP, SHP1, HePTP, PTP-MEG2, PTP-PEST, PTP-BAS, PTP36, PTP-HSCF, PTPD1, LYP, and HD-PTP) were used to investigate the inhibition selectivity. The results were visualized using a heat map analysis by GraphPad Prism (Figure 2B and Table S2 in Supplementary Materials). To identify new SHP2 anticancer natural products, we first performed cloning to express SHP2 protein and then purified it. PTPN11 (Gene ID: 5781) encoding human SHP2 (amino acids sequences 1 to 526) with several extra amino acids were cloned into the MBP-pET 28a (+) vector, which was successfully used to overexpress PTPs with enhanced solubility in an Escherichia coli expression system. Information on amino acids for 15 non-receptor-type PTPs including SHP2 is summarized in Table S3 in the Supplementary Materials. SHP2 was overexpressed in RosettaTM (DE3) and purified using a metal affinity resin (Figure S1 in Supplementary Materials). […] The kcat, KM, and kcat/KM values were determined to be 270 min^−1, 70 μM, and 3.9 μM^−1min^−1, respectively, using the Lineweaver–Burk plot analysis (Table S1 in Supplementary Materials).

The next experiment has as its target T2, PTPN3 (PTPH1) (Homo sapiens, UniProt P26045).
T2 construct: 403-913
T2 sequence (P26045 1-913): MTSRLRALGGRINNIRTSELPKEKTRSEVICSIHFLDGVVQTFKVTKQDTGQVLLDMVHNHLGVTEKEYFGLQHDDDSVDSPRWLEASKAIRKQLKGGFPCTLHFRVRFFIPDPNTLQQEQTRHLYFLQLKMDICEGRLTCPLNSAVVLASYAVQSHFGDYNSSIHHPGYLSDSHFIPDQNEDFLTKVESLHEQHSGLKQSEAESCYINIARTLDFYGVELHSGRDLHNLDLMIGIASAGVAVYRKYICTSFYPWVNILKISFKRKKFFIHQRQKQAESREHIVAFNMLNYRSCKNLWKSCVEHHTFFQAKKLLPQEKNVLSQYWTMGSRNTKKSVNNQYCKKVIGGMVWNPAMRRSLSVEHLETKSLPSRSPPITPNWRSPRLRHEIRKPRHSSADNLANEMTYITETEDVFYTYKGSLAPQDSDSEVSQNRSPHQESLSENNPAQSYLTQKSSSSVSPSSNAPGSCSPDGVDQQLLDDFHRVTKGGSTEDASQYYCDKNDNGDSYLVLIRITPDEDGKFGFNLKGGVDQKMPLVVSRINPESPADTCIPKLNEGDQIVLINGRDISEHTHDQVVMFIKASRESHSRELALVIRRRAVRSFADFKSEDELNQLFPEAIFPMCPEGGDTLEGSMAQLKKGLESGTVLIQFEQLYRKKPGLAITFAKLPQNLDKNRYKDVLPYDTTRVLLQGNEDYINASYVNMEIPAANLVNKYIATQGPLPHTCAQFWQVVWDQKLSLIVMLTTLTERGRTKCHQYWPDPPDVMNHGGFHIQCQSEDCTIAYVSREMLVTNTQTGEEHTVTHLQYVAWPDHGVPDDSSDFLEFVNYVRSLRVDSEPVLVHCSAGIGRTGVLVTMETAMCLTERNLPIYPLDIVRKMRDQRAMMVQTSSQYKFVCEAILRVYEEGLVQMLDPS
How it is done:
as §1

The next experiment deals with T3, SHP1 (Homo sapiens, UniProt P29350).
T3 construct: gene PTPN6
How it is done: as §1

T3 sequence (P29350 whole entry): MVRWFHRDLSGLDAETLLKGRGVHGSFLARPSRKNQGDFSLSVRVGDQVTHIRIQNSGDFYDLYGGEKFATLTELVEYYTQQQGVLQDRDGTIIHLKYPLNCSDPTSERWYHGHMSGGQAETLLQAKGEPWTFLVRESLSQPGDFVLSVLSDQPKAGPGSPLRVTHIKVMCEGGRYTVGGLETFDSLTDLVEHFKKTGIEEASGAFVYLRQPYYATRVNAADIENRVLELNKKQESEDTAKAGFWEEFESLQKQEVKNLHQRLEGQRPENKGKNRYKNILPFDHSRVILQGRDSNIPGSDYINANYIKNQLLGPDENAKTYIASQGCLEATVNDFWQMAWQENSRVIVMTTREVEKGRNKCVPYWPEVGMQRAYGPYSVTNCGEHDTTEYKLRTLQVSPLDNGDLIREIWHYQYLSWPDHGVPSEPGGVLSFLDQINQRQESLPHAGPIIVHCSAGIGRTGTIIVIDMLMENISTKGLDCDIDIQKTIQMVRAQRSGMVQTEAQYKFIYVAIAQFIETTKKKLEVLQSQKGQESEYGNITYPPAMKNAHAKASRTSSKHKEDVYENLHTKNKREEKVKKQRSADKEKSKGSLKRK

As for `C[C@@H]1CC[C@@]2(OC1)O[C@H]1C[C@H]3[C@@H]4CC=C5C[C@@H](O[C@@H]6O[C@H](CO)[C@@H](O[C@@H]7O[C@@H](CO)[C@H](O)[C@H]7O)[C@H](O)[C@H]6O[C@@H]6O[C@@H](C)[C@H](O)[C@@H](O)[C@H]6O)CC[C@]5(C)[C@H]4CC[C@]3(C)[C@H]1[C@@H]2C` [polyphyllin D], the inhibition (usually how much of the control response was suppressed) at 20 µM is 29.9% at PTPN12 (PTP-PEST), 0% on PTPN3 (PTPH1) and 0.1% on SHP1.
